These results are taken from patent US9521846B2, “Template-fixed peptidomimetics with antimicrobial activity” (priority 2006, dated 2016).

Molecules are shown by their SMILES. Non-standard residues stand in square brackets, D forms with d. Residues, ends and D or L forms follow the SMILES beside them. Dab = NCC[C@H](N)C(=O)O

One series can be described thus: in vivo. Also noted: species or system CD-1 mice. As for the experimental part: Pharmacokinetic Study after Single Intravenous, Subcutaneous and Intraperitoneal Administration in Mice Pharmacokinetic study after single intravenous (i.v.) and subcutaneous (s.c.) administration was performed for the compound of Example 1 (“Ex. 1”). CD-1 mice (20-25 g) were used in the study. Physiological saline was used a vehicle. The volume was 2 ml/kg i.v., and 5 ml/kg s.c. and the peptide Ex. 1 was injected to give a final intravenous dose of 1 mg/kg, and a subcutaneous dose of 5 mg/kg. […] Plasma was removed from pelleted cells upon centrifugation and frozen at −80° C. prior to HPLC-MS analysis. “Blank” mouse plasma from untreated animals was used. Aliquots of plasma of 0.2 ml each were spiked with 50 ng of propranolol (Internal Standard, IS), (sample preparation by solid phase extraction on OASIS® BIB cartridges (Waters)) and with known amounts of Ex. 1 in order to obtain 9 plasma calibration samples in the range 10-5000 nM. […] The plate containing eluates was introduced into the concentrator system and taken to dryness. […] Samples coming from animal treatments were pooled in order to obtain an appropriate volume for the extraction. If the total volume obtained was less than 0.2 ml the appropriate amount of “blank” mouse plasma was added in order to keep the matrix identical to the calibration curve. Samples were than spiked with IS and processed as described for the calibration curve. PK analysis was performed on pooled data (generally n=2 or 3) using the software Win Nonlin (Pharsight). The area under the curve AUC was calculated by the linear trapezoidal rule. Elimination half-life was calculated by the linear regression on at least three data points during the elimination phase. The time intervals selected for the half-life determinations were evaluated by the correlation coefficient (r^2), which should be at least above 0.85 and most optimally above 0.96. In case of i.v. administration the initial concentration at tzero was determined by extrapolation of the curve through the first two time points. Finally bioavailability after […]. administration was calculated from the normalised AUCinf_D_obs ration after s.c. versus i.v. administration.

In series [1] the test system is human red blood cells (hRBC). Kind of series: Hemolysis. It counts as cell-based. To be noted: 100.

In the series “in vivo” (CD-1, mouse, iv, 1 mg/kg), `CC[C@H](C)[C@@H]1NC(=O)[C@H](Cc2c[nH]c3ccccc23)NC(=O)[C@H]([C@@H](C)O)NC(=O)[C@@H]2CCCN2C(=O)[C@H]2CCCN2C(=O)[C@H](CCN)NC(=O)[C@H](C)NC(=O)[C@H](CCN)NC(=O)[C@H](CCN)NC(=O)[C@H](Cc2c[nH]c3ccccc23)NC(=O)[C@H](CCN)NC(=O)[C@H](CCN)NC(=O)[C@H](CCCCN)NC(=O)[C@H](CCN)NC1=O` [Example 1] (cyclo(TWI[Dab]K[Dab][Dab]W[Dab][Dab]A[Dab][dP]P)) had a Vd of 1.14 L/kg, a clearance of 25.7 mL/min/kg, a level at 0.25 h of 575 ng/mL and a level at 1 h of 177 ng/mL. The level at 3 h in “in vivo” (CD-1, mouse, iv, 1 mg/kg) worked out at 10.6 ng/mL. For the same compound, the level at 8 h in the series “in vivo” (CD-1, mouse, sc, 5 mg/kg) was 7.3 ng/mL. Moreover, in “in vivo” (mouse, 5 mg/kg), the bioavailability came to 118.2%. Also, the bioavailability in the series “in vivo” (mouse, 5 mg/kg, Bioavailability) is 118%. In the series “in vivo” (mouse, iv, 1 mg/kg), the AUC(0-inf) came out at 680 ng·h/mL, the C0 turned out to be 2170 ng/mL, the Cmax_D stood at 1268.0 kg·ng/mL/mg and the time of peak concentration (Tmax) was found to be 4.8 min. Besides, the half-life in “in vivo” (mouse, iv, 1 mg/kg) was 31.8 min. Besides, the bioavailability in “in vivo” (mouse, iv, 1 mg/kg, Bioavailability) amounted to 100%. The same compound gave a Cmax in “in vivo” (mouse, iv, 1 mg/kg, Cmax) of 1270 ng/mL. In “in vivo” (mouse, sc, 5 mg/kg), this compound showed an AUC(0-inf) of 4020 ng·h/mL, a Cl_obs of 20.83 mL/min/kg, a Cmax of 2333.3 ng/mL and a Cmax_D of 466.7 kg·ng/mL/mg. Moreover, in “in vivo” (mouse, sc, 5 mg/kg), the Tmax worked out at 34.8 min, the Vz_obs was 1.7056 L/kg and the half-life was 57 min. In the series “in vivo” (mouse, sc, 5 mg/kg, Cmax), this compound showed a maximum concentration (Cmax) of 2330 ng/mL. Also, the “Hemolysis at 100 μg/ml” value in series [1] is 0.5%.
